Data as given in patent US10206937B2, “Boronic acid derivatives and therapeutic uses thereof” (Qpex Biopharma, Inc., priority 2014, dated 2019).

Test system: strains of Enterobacteriaceae producing various carbapenemases (class A, D and B; 104 strains)
Experiment: Antibiotics potentiation by Compound 27 (MIC; meropenem, doripenem, ertapenem, cefepime)
Assay type: cell-based
Settings: + 27 = with Compound 27 at fixed 4 μg/ml

Compound: COc1ccc2c(c1C(=O)O)OB(O)C(Sc1nnc(N)s1)C2 (centres unmarked) [D + 27]
- MIC (strain CF1012 Citrobacter freundii (KPC-2)): X (MIC of less than 1 μg/mL)
- MIC (strain CF1021 Citrobacter freundii (CMY-type; VIM-1)): X (MIC of less than 1 μg/mL)
- MIC (strain CF1022 Citrobacter freundii (SHV-12(2be), TEM-OSBL(2b); IMP-8)): X (MIC of less than 1 μg/mL)
- MIC (strain CF1023 Citrobacter freundii (SHV-12(2be), TEM-OSBL(2b); CTX-M-3; CMY-34; NDM-1)): X (MIC of less than 1 μg/mL)
- MIC (strain CL1080 Enterobacter cloacae (IMP-1)): X (MIC of less than 1 μg/mL)
- MIC (strain EA1019 Enterobacter aerogenes (SHV-5, VIM-1)): X (MIC of less than 1 μg/mL)
- MIC (strain EC1007 Escherichia coli (KPC-3)): X (MIC of less than 1 μg/mL)
- MIC (strain EC1061 Escherichia coli (NDM-1, CMY-6)): X (MIC of less than 1 μg/mL)
- MIC (strain EC1062 Escherichia coli (OXA-48, CTX-M-15)): X (MIC of less than 1 μg/mL)
- MIC (strain EC1064 Escherichia coli (NDM-1, CMY-6, CTX-M-15)): Y (MIC of 1 μg/mL to 10 μg/mL)
- MIC (strain EC1065 Escherichia coli (IMP-1)): X (MIC of less than 1 μg/mL)
- MIC (strain EC1068 Escherichia coli (VIM-1)): X (MIC of less than 1 μg/mL)
- MIC (strain EC1069 Escherichia coli (CTX-M-27; NDM-1)): X (MIC of less than 1 μg/mL)
- MIC (strain EC1070 Escherichia coli (TEM-OSBL(2b); CMY-42; NDM-5)): X (MIC of less than 1 μg/mL)
- MIC (strain EC1072 Escherichia coli (CTX-M-3; NDM-1)): X (MIC of less than 1 μg/mL)
- MIC (strain ECL1004 Enterobacter cloacae (NMC-A)): X (MIC of less than 1 μg/mL)
- MIC (strain ECL1026 Enterobacter cloacae (KPC-2, TEM-1)): X (MIC of less than 1 μg/mL)
- MIC (strain ECL1036 Enterobacter cloacae (KPC-3, TEM-1)): X (MIC of less than 1 μg/mL)
- MIC (strain ECL1045 Enterobacter cloacae (VIM-1)): Y (MIC of 1 μg/mL to 10 μg/mL)
- MIC (strain ECL1055 Enterobacter cloacae (KPC-3, TEM)): X (MIC of less than 1 μg/mL)
- MIC (strain ECL1057 Enterobacter cloacae (NDM-1, TEM-1, CTX-M-15)): Z (MIC of greater than 10 μg/mL)
- MIC (strain ECL1058 Enterobacter cloacae (KPC-3, SHV-11, TEM-1)): X (MIC of less than 1 μg/mL)
- MIC (strain ECL1059 Enterobacter cloacae (KPC-3, SHV-12, TEM-1)): X (MIC of less than 1 μg/mL)
- MIC (strain ECL1061 Enterobacter cloacae (KPC-3, Hyper AmpC expression)): X (MIC of less than 1 μg/mL)
- MIC (strain ECL1082 Enterobacter cloacae (VIM-1)): X (MIC of less than 1 μg/mL)
- MIC (strain ECL1084 Enterobacter cloacae (CTX-M-15; ACT-16; NDM-1)): X (MIC of less than 1 μg/mL)
- MIC (strain ECL1085 Enterobacter cloacae (SHV-31(2be), TEM-1(2b); CTX-M-15; NDM-1)): X (MIC of less than 1 μg/mL)
- MIC (strain ECL1086 Enterobacter cloacae (VIM-31, OXA-48(c))): X (MIC of less than 1 μg/mL)
- MIC (strain ECL1087 Enterobacter cloacae (VIM-1)): X (MIC of less than 1 μg/mL)
- MIC (strain ECL1088 Enterobacter cloacae (TEM-1(2b); CTX-M-14; ACT-type; VIM-1)): X (MIC of less than 1 μg/mL)
- MIC (strain ECL1089 Enterobacter cloacae (ACT-type; IMP-1)): Y (MIC of 1 μg/mL to 10 μg/mL)
- MIC (strain ECL1090 Enterobacter cloacae (TEM-1(2b); CTX-M-22; ACT-type; IMP-8)): X (MIC of less than 1 μg/mL)
- MIC (strain ECL1091 Enterobacter cloacae (VIM-1)): Y (MIC of 1 μg/mL to 10 μg/mL)
- MIC (strain ECL1092 Enterobacter cloacae (TEM-OSBL(2b); ACT-32; VIM-1)): X (MIC of less than 1 μg/mL)
- MIC (strain ECL1093 Enterobacter cloacae (TEM-OSBL(2b); ACT-32; VIM-1)): X (MIC of less than 1 μg/mL)
- MIC (strain ECL1094 Enterobacter cloacae (VIM-1)): X (MIC of less than 1 μg/mL)
- MIC (strain ECL1096 Enterobacter cloacae (CMY-4, VIM-4, OXA-48(c))): X (MIC of less than 1 μg/mL)
- MIC (strain ECL1097 Enterobacter cloacae (SHV-31(2be), TEM-OSBL(2b); CTX-M-15; ACT-31; NDM-1)): X (MIC of less than 1 μg/mL)
- MIC (strain ECL1098 Enterobacter cloacae (TEM-OSBL(2b); DHA-1; ACT-16; NDM-1)): X (MIC of less than 1 μg/mL)
- MIC (strain KP1001 Klebsiella pneumoniae (KPC TEM SHV)): Y (MIC of 1 μg/mL to 10 μg/mL)
- MIC (strain KP1002 Klebsiella pneumoniae (KPC TEM SHV)): X (MIC of less than 1 μg/mL)
- MIC (strain KP1003 Klebsiella pneumoniae (KPC TEM SHV)): X (MIC of less than 1 μg/mL)
- MIC (strain KP1004 Klebsiella pneumoniae (KPC-2, TEM-1, SHV-11)): X (MIC of less than 1 μg/mL)
- MIC (strain KP1008 Klebsiella pneumoniae (KPC-2)): X (MIC of less than 1 μg/mL)
- MIC (strain KP1014 Klebsiella pneumoniae (VIM-1, TEM, SHV)): Y (MIC of 1 μg/mL to 10 μg/mL)
- MIC (strain KP1054 Klebsiella pneumoniae (VIM-1, SHV-11)): X (MIC of less than 1 μg/mL)
- MIC (strain KP1059 Klebsiella pneumoniae (VIM-1, SHV-11)): Y (MIC of 1 μg/mL to 10 μg/mL)
- MIC (strain KP1061 Klebsiella pneumoniae (KPC-3, SHV-11, TEM-1)): X (MIC of less than 1 μg/mL)
- MIC (strain KP1064 Klebsiella pneumoniae (KPC-2, SHV-11, TEM-1)): Y (MIC of 1 μg/mL to 10 μg/mL)
- MIC (strain KP1065 Klebsiella pneumoniae (VIM-1, SHV-11)): X (MIC of less than 1 μg/mL)
- MIC (strain KP1070 Klebsiella pneumoniae (KPC-2, SHV-11, TEM-1)): X (MIC of less than 1 μg/mL)
- MIC (strain KP1074 Klebsiella pneumoniae (KPC-3, SHV-11, TEM)): Y (MIC of 1 μg/mL to 10 μg/mL)
- MIC (strain KP1081 Klebsiella pneumoniae (NDM-1, TEM-1, SHV-11, CMY-6, CTX-M-15)): X (MIC of less than 1 μg/mL)
- MIC (strain KP1082 Klebsiella pneumoniae (KPC-2, SHV-1)): X (MIC of less than 1 μg/mL)
- MIC (strain KP1083 Klebsiella pneumoniae (KPC-3, SHV-1, TEM-1)): X (MIC of less than 1 μg/mL)
- MIC (strain KP1084 Klebsiella pneumoniae (KPC-3, SHV-11, TEM-1)): Y (MIC of 1 μg/mL to 10 μg/mL)
- MIC (strain KP1086 Klebsiella pneumoniae (OXA-48, CTX-M-15, TEM, SHV)): Y (MIC of 1 μg/mL to 10 μg/mL)
- MIC (strain KP1087 Klebsiella pneumoniae (KPC-2, CTX-M-15, SHV-11, TEM-1)): Y (MIC of 1 μg/mL to 10 μg/mL)
- MIC (strain KP1088 Klebsiella pneumoniae (KPC-3, SHV-11, TEM-1)): X (MIC of less than 1 μg/mL)
- MIC (strain KP1089 Klebsiella pneumonias (OXA-181, CTX-M-15, TEM, SHV)): X (MIC of less than 1 μg/mL)
- MIC (strain KP1095 Klebsiella pneumoniae (KPC-2 TEM-1 SHV-1)): X (MIC of less than 1 μg/mL)
- MIC (strain KP1096 Klebsiella pneumoniae (KPC-2 TEM-181 SHV-11)): X (MIC of less than 1 μg/mL)
- MIC (strain KP1097 Klebsiella pneumonias (IMP-1)): X (MIC of less than 1 μg/mL)
- MIC (strain KP1098 Klebsiella pneumoniae (IMP-26)): Y (MIC of 1 μg/mL to 10 μg/mL)
- MIC (strain KP1104 Klebsiella pneumoniae (KPC TEM)): X (MIC of less than 1 μg/mL)
- MIC (strain KP1105 Klebsiella pneumoniae (KPC TEM SHV)): X (MIC of less than 1 μg/mL)
- MIC (strain KP1159 Klebsiella pneumoniae (SHV-1(2b); CTX-M-15; IMP-4)): X (MIC of less than 1 μg/mL)
- MIC (strain KP1160 Klebsiella pneumoniae (SHV-28(2be); CTX-M-15; IMP-26)): X (MIC of less than 1 μg/mL)
- MIC (strain KP1161 Klebsiella pneumoniae (NDM-1)): X (MIC of less than 1 μg/mL)
- MIC (strain KP1164 Klebsiella pneumoniae (SHV-12(2be); VIM-1)): X (MIC of less than 1 μg/mL)
- MIC (strain KP1165 Klebsiella pneumoniae (SHV-11(2b); CTX-M-15; VIM-27)): Z (MIC of greater than 10 μg/mL)
- MIC (strain KP1166 Klebsiella pneumoniae (SHV-5(2be); VIM-26)): Y (MIC of 1 μg/mL to 10 μg/mL)
- MIC (strain KP1167 Klebsiella pneumoniae (SHV-12(2be); VIM-1)): X (MIC of less than 1 μg/mL)
- MIC (strain KP1169 Klebsiella pneumoniae (SHV-11(2b); VIM-1)): X (MIC of less than 1 μg/mL)
- MIC (strain KP1170 Klebsiella pneumoniae (SHV-11(2b); CTX-M-15; NDM-1)): X (MIC of less than 1 μg/mL)
- MIC (strain KP1172 Klebsiella pneumoniae (SHV-31(2be); DHA-1; VIM-1)): X (MIC of less than 1 μg/mL)
- MIC (strain KP1173 Klebsiella pneumoniae (TEM-33(2br); CTX-M-15; IMP-1)): X (MIC of less than 1 μg/mL)
- MIC (strain KP1174 Klebsiella pneumoniae (CTX-M-14; IMP-1)): X (MIC of less than 1 μg/mL)
- MIC (strain KP1175 Klebsiella pneumoniae (SHV-OSBL(2b); VIM-1)): X (MIC of less than 1 μg/mL)
- MIC (strain KP1177 Klebsiella pneumoniae (SHV-OSBL(2b), TEM-OSBL(2b); CTX-M-15; NDM-1)): X (MIC of less than 1 μg/mL)
- MIC (strain KP1178 Klebsiella pneumoniae (SHV-OSBL(2b;) TEM-OSBL(2b); CTX-M-15; NDM-1)): X (MIC of less than 1 μg/mL)
- MIC (strain KP1179 Klebsiella pneumoniae (SHV-12(2be), TEM-OSBL(2b); CTX-M-15; NDM-7)): X (MIC of less than 1 μg/mL)
- MIC (strain KP1180 Klebsiella pneumoniae (SHV-OSBL(2b), TEM-OSBL(2b); CTX-M-15; DHA-1; IMP-26)): X (MIC of less than 1 μg/mL)
- MIC (strain KP1181 Klebsiella pneumoniae (SHV-OSBL(2b); CTX-M-15; IMP-26)): X (MIC of less than 1 μg/mL)
- MIC (strain KP1183 Klebsiella pneumoniae (SHV-OSBL(2b), TEM-OSBL(2b); CTX-M-15; NDM-1)): X (MIC of less than 1 μg/mL)
- MIC (strain KP1184 Klebsiella pneumoniae (SHV-OSBL(2b); IMP-1)): X (MIC of less than 1 μg/mL)
- MIC (strain KP1185 Klebsiella pneumoniae (SHV-OSBL(2b), TEM-OSBL(2b); IMP-4)): X (MIC of less than 1 μg/mL)
- MIC (strain KP1186 Klebsiella pneumoniae (CTX-M-15; NDM-1)): X (MIC of less than 1 μg/mL)
- MIC (strain KP1187 Klebsiella pneumoniae (SHV-55(2be), TEM-OSBL(2b); CTX-M-15; NDM-1)): X (MIC of less than 1 μg/mL)
- MIC (strain KP1188 Klebsiella pneumoniae (SHV-OSBL(2b); CTX-M-15; NDM-1)): Y (MIC of 1 μg/mL to 10 μg/mL)
- MIC (strain KP1189 Klebsiella pneumoniae (TEM-OSBL(2b); CTX-M-15; CTX-M-27; NDM-1)): X (MIC of less than 1 μg/mL)
- MIC (strain KPM1123 Klebsiella pneumoniae (KPC-2 TEM SHV)): X (MIC of less than 1 μg/mL)
- MIC (strain KPM1202 Klebsiella pneumoniae (KPC SHV TEM)): X (MIC of less than 1 μg/mL)
- MIC (strain KPM1203 Klebsiella pneumoniae (KPC SHV TEM)): X (MIC of less than 1 μg/mL)
- MIC (strain KPM1344 Klebsiella pneumoniae (VIM-1)): X (MIC of less than 1 μg/mL)
- MIC (strain KPM1345 Klebsiella pneumoniae (VIM-1 SHV)): X (MIC of less than 1 μg/mL)
- MIC (strain KPM1347 Klebsiella pneumoniae (NDM-1 SHV CTX-M-15)): X (MIC of less than 1 μg/mL)
- MIC (strain KX1017 Klebsiella oxytoca (KPC-2, OXA-2, SHV-30)): X (MIC of less than 1 μg/mL)
- MIC (strain KX1018 Klebsiella oxytoca (KPC-2, SHV-40, OXY-1)): X (MIC of less than 1 μg/mL)
- MIC (strain KX1019 Klebsiella oxytoca (KPC-2, OXA-2)): X (MIC of less than 1 μg/mL)
- MIC (strain PM1024 Proteus mirabilis (TEM-1(2b); CMY-16; VIM-1)): X (MIC of less than 1 μg/mL)
- MIC (strain PM1026 Proteus mirabilis (DHA-1; IMP-26)): Y (MIC of 1 μg/mL to 10 μg/mL)
- MIC (strain PM1027 Proteus mirabilis (VIM-5)): X (MIC of less than 1 μg/mL)
- MIC (strain SM1023 Serratia marcescens (VIM-4)): Y (MIC of 1 μg/mL to 10 μg/mL)
